Laboratory results as given in patent US8946436B2, “Oxazolidinone compounds and their uses in preparation of antibiotics” (Sichuan Gooddoctor Pharmaceutical Group Co., Ltd., priority 2011, dated 2015).
In brackets after ≈: the same amount, converted by molar mass.

Assays:
VRE = assay: Minimum bactericidal concentration (MBC) test, VRE; assay type: cell-based, vancomycin resistant Enterococcus faecium
Experimental: (§1) Staphylococcus and Enterococcus faecium were incubated in Mueller-Hinton agar medium (MHA medium) at 35° C. for 16-20 h; S. pneumoniae was incubated in Cation-Adjusted Mueller-Hinton Broth medium (CAMHB medium) supplemented with 2.5-5.5% (v/v) lysed horse blood (LHB) at 35° C. for 20-24 h; and Streptococcus were incubated in sheep blood-containing medium (prepared by addition of 5% defibrinated sheep blood into MHA media) at 35° C. for 20-24 h in 5% CO2 environment (CO2 incubator). Before test of the compound activity, each stock of the bacteria strains was activated and colonized in the following manner: the stock was transferred and cultured in a liquid culture medium, the culture liquid was smeared onto an agar plate with an inoculating loop to obtain bacterial colonies on the plate after incubation, and then a colony of the bacteria was chose to be suspended into the liquid culture medium for performing the test of compound activity. As a result, fresh bacteria cells were applied to the test. The standard strains were used as sensitive bacterium to control the quality of the experiments, and a plate or tube containing no antibacterial compounds is used as a blank control for the growth of test strains.
(§2) The minimal inhibitory concentration (MIC) of the test compounds on the strains of Streptococcus pneumoniae was determined by a standard broth macrodilution method, while the MIC of the test compounds on the other bacteria stains was determined by standard agar double dilution methods. The concentration of the test compounds was in the range of 32 mg/L-0.016 mg/L. The bacterial suspensions to be tested were inoculated by a multipoint inoculator, and the inoculation amount at each point is 10^4 CFU. The MIC of the test compound to each strain of the bacteria was determined.
(§3) The MBC was determined by a tube double dilution method. Solutions of the test compounds was prepared and serially diluted. Each of the solutions was mixed with a bacterium suspension (10^6 CFU/mL), and then was incubated at 35° C. overnight. 0.1 mL of the culture supernatant of each tubes was inoculated on a plate containing no antibiotics, and then incubated at 35° C. for 18 h.

gram-positive bacteria = assay: MIC against 120 strains of clinically isolated gram-positive bacteria; assay type: cell-based; settings: 120 clinically isolated gram-positive strains
Excerpt: In order to further study the antibacterial spectrum of Compound 13f, we tested in vitro inhibitory activity of compound 13f on 120 strains of gram-positive bacteria established by clinical isolation, and the MIC values were shown in Table 3.
(§4) Clinically isolated strains: There are total 120 clinical strains of gram-positive bacterium including: 37 strains of Staphylococcus aureus (consisting of 14 strains of methicillin sensitive Staphylococcus aureus MSSA and 23 strains of methicillin resistant Staphylococcus aureus MRSA); 27 strains of Streptococcus pneumoniae (consisting of 13 strains of penicillin sensitive Streptococcus pneumoniae PSSP and 14 strains of penicillin insensitive or resistant Streptococcus pneumoniae PISP+PRSP); 15 strains of Streptococcus pyogenes; 17 strains of Streptococcus agalactiae; 24 stains of Enterococcus faecium (consisting of 12 strains of vancomycin sensitive Enterococcus faecium and 12 strains of vancomycin resistant Enterococcus faecium).
(§5) The minimal inhibitory concentration (MIC) of the test compounds on the strains of Streptococcus pneumoniae was determined by a standard broth macrodilution method, while the MIC of the test compounds on the other bacteria stains was determined by standard agar double dilution methods. […] The MIC of the test compound to each strain of the bacteria was determined.

PNSSP = assay: Minimum bactericidal concentration (MBC) test, PNSSP; assay type: cell-based, Streptococcus pneumoniae; settings: strain 09J699, PNSSP
Experimental: as §1, §2
(§6) The MBC was determined by a tube double dilution method. Solutions of the test compounds was prepared and serially diluted. Each of the solutions was mixed with a bacterium suspension (10^6 CFU/mL), and then was incubated at 35° C. overnight. […]

MSSA [1] = assay: MIC against clinically isolated strains, MSSA; assay type: cell-based, methicillin sensitive Staphylococcus aureus; parameters: MICmode / MICrange: unit not given here; settings: MSSA (14 strains)
Excerpt: (§7) Standard strains, including Staphylococcus aureus ATCC29213, S. pneumoniae ATCC49619, E. faecalis ATCC29212, are all available from the American Type Culture Collection.
as §4
(§8) (2) Tested compounds: Compound 13f was prepared by the methods above, with potency of over 98%; Linezolid was purchased from Pfizer, with potency of 100%.
as §1, §5

PSSP = assay: Minimum bactericidal concentration (MBC) test, PSSP; assay type: cell-based, penicillin sensitive Streptococcus pneumoniae; settings: strain 09G343, PSSP
Experimental: as §1, §2, §6

MSSA [2] = assay: Minimum bactericidal concentration (MBC) test, MSSA; assay type: cell-based, methicillin sensitive Staphylococcus aureus; settings: for MIC: MSSA
Experimental: as §1, §2, §3

Streptococcus pyogenes = assay: MIC against clinically isolated strains, Streptococcus pyogenes; assay type: cell-based; parameters: MICmode / MICrange: unit not given here; settings: Streptococcus pyogenes (15 strains)
Excerpt: as §7, §4, §8, §1, §5

MRSA [3] = assay: Minimum bactericidal concentration (MBC) test, MRSA; assay type: cell-based, methicillin resistant Staphylococcus aureus
Experimental: as §1, §2, §6

MRSA [4] = assay: MIC against clinically isolated strains, MRSA; assay type: cell-based, methicillin resistant Staphylococcus aureus; parameters: MICmode / MICrange: unit not given here; settings: MRSA (23 strains)
Excerpt: as §7, §4, §8, §1, §5

[5] = Enterococcus, strain 09ZB145, VRE
[6] = Staphylococcus aureus, strain 09U035, MSSA

CC(=O)NC[C@H]1CN(c2ccc(-n3cc(-c4ccccn4)cn3)c(F)c2)C(=O)O1 [Compound 13f, (S)-N-((3-(3-fluoro-4-(4-(pyridin-2-yl)-1H-pyrazol-1-yl)phenyl)-2-oxooxazolidin-5-yl)methyl)acetamide]
MBC (VRE; [5]): 8 ng/mL (≈ 20.2 nM) | MIC (VRE; [5]): 4 ng/mL (≈ 10.1 nM) | MBC value (VRE; strain 09ZB137, VRE): 8 ng/mL (≈ 20.2 nM) | MBC/MIC (VRE; strain 09ZB137, VRE): 2 | MIC value (VRE; strain 09ZB137, VRE): 4 ng/mL (≈ 10.1 nM) | MBC/MIC (VRE; strain 09ZB145, VRE): 2 | antibacterial activity on test strains compared with Linezolid (gram-positive bacteria): almost the same with that of Linezolid | MBC (PNSSP; Streptococcus pneumoniae): 2 ng/mL (≈ 5.06 nM) | MIC (PNSSP; Streptococcus pneumoniae): 1 ng/mL (≈ 2.53 nM) | MBC/MIC (PNSSP): 2 | MICmode (MSSA [1]): 1 | MICrange (MSSA [1]): 0.5-1 | MIC50 (MSSA [1]; Staphylococcus aureus): 1 ng/mL (≈ 2.53 nM) | MIC90 (MSSA [1]; Staphylococcus aureus): 1 ng/mL (≈ 2.53 nM) | MBC (PSSP; Streptococcus pneumoniae): 1 ng/mL (≈ 2.53 nM) | MIC (PSSP; Streptococcus pneumoniae): 0.5 ng/mL (≈ 1.26 nM) | MBC/MIC (PSSP): 2 | MIC (MSSA [2]; Staphylococcus aureus, strain 09O077, MSSA): 1 ng/mL (≈ 2.53 nM) | MIC (MSSA [2]; [6]): 2 ng/mL (≈ 5.06 nM) | MBC (MSSA [2]; [6]): 2 ng/mL (≈ 5.06 nM) | MBC value (MSSA [2]; strain 09O077, MSSA): 2 ng/mL (≈ 5.06 nM) | MBC/MIC (MSSA [2]; strain 09O077, MSSA): 2 | MBC/MIC (MSSA [2]; strain 09U035, MSSA): 1 | MIC50 (Streptococcus pyogenes): 0.25 ng/mL (≈ 0.632 nM) | MIC90 (Streptococcus pyogenes): 0.5 ng/mL (≈ 1.26 nM) | MICmode (Streptococcus pyogenes): 0.25 | MICrange (Streptococcus pyogenes): 0.25-0.5 | MBC/MIC (MRSA [3]; strain 09L075, MRSA): 2 | MIC value (MRSA [3]; strain 09L075, MRSA): 2 ng/mL (≈ 5.06 nM) | MBC/MIC (MRSA [3]; strain 09N120, MRSA): 1 | MICmode (MRSA [4]): 1 | MICrange (MRSA [4]): 0.5-1 | MIC50 (MRSA [4]; Staphylococcus aureus): 1 ng/mL (≈ 2.53 nM) | MIC90 (MRSA [4]; Staphylococcus aureus): 1 ng/mL (≈ 2.53 nM)
